The METLIN SMRT retention time set (Domingo-Almenara et al. 2019)

experiment: gradient 5% acetonitrile 3 min, to 50% in 2 min, to 85% in 15 min, held 3 min, 100 µL/min; details: column: Zorbax Extend-C18 2.1 x 50 mm; eluents: water / acetonitrile, 0.1% formic acid
Method in brief: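 Pure standards were analyzed in mixtures of ~100 molecules using HPLC coupled to a quadrupole time-of-flight mass spectrometer, in both positive and negative ionization mode. Separation used a Zorbax Extend-C18 column (2.1 × 50 mm, 1.8 μm) at 100 μL/min, with water and acetonitrile each containing 0.1% formic acid. Dead and dwell volumes were 40 μL and 900 μL, and data were collected over 3 months. Retention time was read from computationally picked adduct peaks, each inspected manually.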

SMILES	RP-LC retention time [s]
CCc1nc2cc(CNC(=O)Cc3ccc(Cl)cc3)ccc2n1C	641
Cc1nn(CC(=O)NC2CCCCC2)c(=O)c2c(-n3cccc3)n(-c3ccc(Cl)cc3)nc12	1130
CCOCCCNC(=O)C1(C)Cn2c(ccc2-c2ccco2)C(=O)N1c1ccc(F)cc1 (stereo unspecified)	808
Cc1oc2c(c1C(=O)Nc1ccc(F)c(F)c1)C1=NC(C)(C)CN1C=N2	655
Cc1ccc(CNC(=O)C2CCN(S(=O)(=O)c3cc(C(=O)N(C)C)cs3)CC2)o1	708
CC(=O)Nc1ccc(N(Cc2nnc3n2CCCCC3)C(=O)Nc2ccc(Cl)cc2)cc1	690
O=C(Nc1nc(-c2ccccc2)ns1)c1ccccc1Cl	989
Cc1cccc(-c2noc(Cn3ncn4nc(-c5ccc(C)cc5C)cc4c3=O)n2)c1	878
CCN(CC)C(=O)c1ccc(-c2nnc3ccc(NC(=O)C4CC4)cn23)cc1	699
CN(Cc1ccccc1)C(=O)C1CCN(S(=O)(=O)Cc2ccccc2)CC1	867
O=C(c1nnc(-c2ccc(S(=O)(=O)N3CCOCC3)cc2)o1)N1CCC2(CC1)OCCO2	730
CC1CCC2(CC1)NC(=O)N(CC(=O)NCc1ccccc1F)C2=O (stereo unspecified)	772
CCN(c1cccc(C)c1)S(=O)(=O)c1cc(-c2[nH]ncc2C(=O)N(C)C)oc1C	792
COCCN1C(=O)CCc2cc(NS(=O)(=O)c3ccc(OC)c(Cl)c3)ccc21	794
Cc1ccc(-n2c(=O)c3c(cc(C)n3C)n(CC(=O)Nc3c(C)cccc3C)c2=O)cc1	912
Cc1cccc(Nc2nc(C)c(C(=O)N3CCN(c4ccccc4)CC3)s2)n1	884
O=C(NCc1ccccc1)c1c(O)c2cccnc2n(-c2ccccc2)c1=O	1160
CN(C)S(=O)(=O)c1ccc2nc(NC(=O)c3nc4ccccc4s3)sc2c1	948
CCOC(=O)c1noc2nc(C)nc(NC3CCN(Cc4ccccc4)CC3)c12	648
Cc1cc(C(=O)NC2CCCCCC2)n[nH]1	724
COC(=O)c1cnn(-c2ccc(C(=O)N3CCc4ccccc43)cc2)c1N	768
COc1ccccc1OCC(=O)Nc1ccc2c(c1)N(C(=O)c1ccco1)CCC2	881

SMILES	RP-LC retention time [s]
O=C(Nc1cc(-c2ccccc2)[nH]n1)c1ccc(Cl)cc1	925
CCN1C=C(C(=O)OCc2ccccc2)C(C)=NS1(=O)=O	958
Cc1ccc(C)c(N2CCN(C(=O)c3cnc4ncnn4c3C)CC2)c1	829
CC(C)(C)NC(=O)N1CCC(CNC(=O)c2cccs2)CC1	655
COc1ccc(CNC(=O)Nc2cccc(-c3ccc(N4CCOCC4)nn3)c2)cc1	655
Cc1cccc(Cn2c(CN3CCC(C(=O)NCCc4ccco4)CC3)cc3ccccc32)c1	800
COc1ccc(C2CCN(C(=O)Nc3cccc(C(F)(F)F)c3)C2)cc1 (stereo unspecified)	954
Cc1cccc(N2CCN(C(=O)CN3CCN(Cc4ccccc4F)C3=O)CC2)c1	864
O=C(NCCc1ccccc1)NCCn1c(-c2ccccc2)nc2cccnc21	683
O=C(Cc1csc2nc(-c3ccccc3)cn12)N1CCCc2ccccc21	873
CCCc1nc(-c2c(C)cc(C)nc2NC(=O)c2cccc(Cl)c2)no1	986
CC1CCCN(CCCNC(=O)c2nnc(-c3ccc(S(=O)(=O)N4CCCC4)cc3)o2)C1 (stereo unspecified)	642
Cc1ccc(-c2nc(-c3ccc4nncn4c3)no2)cc1F	764
c1ccc(CN2CCN(Cc3cnoc3-c3ccccc3)CC2)cc1	689
O=C(CSc1ccc(N2CCCC(C(=O)NC3CC3)C2)nn1)Nc1ccc(F)cc1 (stereo unspecified)	629
Cc1cc(-c2cc(S(=O)(=O)NC3CCCCCC3)c(C)s2)n[nH]1	917
O=C(NCc1ccc(F)c(Cl)c1)c1sc2ncccc2c1-n1cccc1	1050
Cc1ccc(-c2nc3ccc(Cl)cn3c2Nc2ccc3c(c2)OCO3)cc1	708
COc1ccc(-c2noc(Cn3ccnc3C)n2)cc1OC	589
CC1CCC(NC(=O)C2CCN(C(=O)c3ncn4c3COC(c3ccc(Cl)cc3)C4)CC2)CC1 (stereo unspecified)	880
CCS(=O)(=O)N1CC(n2cc(C(=O)NCC3CC3)nn2)C1	664
Cc1nnc(NC(=O)CN2CCC(c3nnc(C(F)(F)F)o3)CC2)s1	545

SMILES	RP-LC retention time [s]
Cc1ccc(CNC(=O)N2CCCC(C)(C(=O)NCc3ccc(F)cc3)C2)cc1 (stereo unspecified)	890
Cc1ccc(Cl)cc1N1CCN(C(=O)C2CCN(c3ncnc4c3oc3ccccc34)CC2)CC1	1060
O=C(Nc1ccc2nc3n(c(=O)c2c1)CCCCC3)C(=O)NC1CC1	687
O=C(Cc1cccs1)N1CCN(c2ccc(=O)n(-c3cccc(Cl)c3)n2)CC1	822
CCN(Cc1ccc(C)cc1)Cc1cc(=O)n2ccc(C)cc2n1	628
Cc1ccc(NC(=O)C2CCN(S(=O)(=O)c3cc(C(=O)N4CCCC4)n(C)c3)CC2)cc1C	836
CC1CC(=O)Nc2ccccc2N1C(=O)COc1ccc(Cl)cc1Cl (stereo unspecified)	844
O=C(NCc1ccc(-n2ccnc2)cc1)c1ccc(F)c(F)c1	625
CCOc1ccc(NC(=O)C2CCN(S(=O)(=O)c3ccc4c(c3)CCCC(=O)N4)CC2)cc1	816
CCC(CC)C(=O)Nc1c(-c2ccccc2)nc2cc(C)ccn12	654
CCc1ccc(-c2noc(Cn3c(=O)n(-c4cccc(OC)c4)c(=O)c4sccc43)n2)cc1	1060
COc1ccc(C)cc1NC(=O)CCc1cccc2[nH]ccc12	942
COc1ccc(-c2nnc(N3CCC(C(=O)NCCC(C)C)CC3)o2)cc1	838
CCOc1ccc(C(=O)NC2(c3nc(-c4cccnc4)no3)CCCCC2)cc1OCC	998
COc1ccc(C(=O)N2CCC3(CC2)N=C(c2ccccc2)NO3)c(OC)c1	755
Cc1cccc(NC(=O)Cn2nc(N3CCCC(C)C3)c3ccccc3c2=O)c1 (stereo unspecified)	1090
Cc1ccc(CCC(=O)Nc2cccc3ccccc23)o1	847
COc1ccc(CN(C)Cc2cc(=O)n3cc(Cl)ccc3n2)cc1OC	606
O=C(NC1CCCC1)C1CCCN(c2ccc(=O)n(-c3ccc(F)cc3)n2)C1 (stereo unspecified)	763
COCCNC(=O)C1CCN(C(=O)c2cc3oc(C)cc3n2Cc2c(F)cccc2Cl)CC1	804
O=C(Cn1nc2n(c1=O)CCCC2)Nc1ccccc1	633
Cc1cc(C(=O)NCCCN2CCOCC2)nc2cc(-c3ccccn3)nn12	630
